This is an account of results in publication PMC5218480 (PLoS ONE, 2017).

This assay relates to MV-4-11 cells. Briefly: Gene expression microarray analysis (Affymetrix PrimeView) and GSEA. On the set-up: RFU PODN (11730768_x_at) / Fold change /veh PODN (11730768_x_at) / RFU LINC00158 (11744669_a_at) / Fold change /veh LINC00158 (11744669_a_at) / RFU DUSP10 (11751237_a_at) / Fold change /veh DUSP10 (11751237_a_at) / RFU ID3 (11757404_x_at) / Fold change /veh ID3 (11757404_x_at) / RFU PLEKHG5 (11737974_s_at) / Fold change /veh PLEKHG5 (11737974_s_at) / RFU LRRC4B (11730491_at) / Fold change /veh LRRC4B (11730491_at) / RFU GIMAP4 (11747438_a_at) / Fold change /veh GIMAP4 (11747438_a_at) / RFU KRT8 (11758183_x_at) / Fold change /veh KRT8 (11758183_x_at) / RFU CNN1 (11734310_a_at) / Fold change /veh CNN1 (11734310_a_at) / RFU VPS37D (11726825_at) / Fold change /veh VPS37D (11726825_at) / RFU C10orf10 (11716522_x_at) / Fold change /veh C10orf10 (11716522_x_at) / RFU KIR2DL2 /// KIR2DL4 /// KIR2DL5A /// KIR2DL5B /// KIR2DS1 /// KIR2DS2 /// KIR2DS3 /// KIR2DS4 /// KIR3DL3 /// KIR3DL3 /// KIR3DS1 (11738374_at) / Fold change /veh KIR2DL2 /// KIR2DL4 /// KIR2DL5A /// KIR2DL5B /// KIR2DS1 /// KIR2DS2 /// KIR2DS3 /// KIR2DS4 /// KIR3DL3 /// KIR3DL3 /// KIR3DS1 (11738374_at) / RFU C1QL1 (11718748_at) / Fold change /veh C1QL1 (11718748_at) / RFU TMPRSS4 (11747572_a_at) / Fold change /veh TMPRSS4 (11747572_a_at) / RFU HAMP (11756126_x_at) / Fold change /veh HAMP (11756126_x_at) / RFU RNFT2 (11725882_a_at) / Fold change /veh RNFT2 (11725882_a_at) / RFU NR4A2 (11747474_a_at) / Fold change /veh NR4A2 (11747474_a_at) / RFU ABCC12 (11746883_a_at) / Fold change /veh ABCC12 (11746883_a_at) / RFU TMEM136 (11760407_x_at) / Fold change /veh TMEM136 (11760407_x_at) / RFU CLDN22 /// WWC2 (11732394_at) / Fold change /veh CLDN22 /// WWC2 (11732394_at) / RFU HLA-DPB1 (11760878_x_at) / Fold change /veh HLA-DPB1 (11760878_x_at) / RFU SPINT1 (11716480_a_at) / Fold change /veh SPINT1 (11716480_a_at) / RFU GAP43 (11754022_s_at) / Fold change /veh GAP43 (11754022_s_at) / RFU A4GNT (11735810_at) / Fold change /veh A4GNT (11735810_at) / RFU PRB3 (11715151_x_at) / Fold change /veh PRB3 (11715151_x_at) / RFU TUBB4B (11761932_at) / Fold change /veh TUBB4B (11761932_at) / RFU CAPN14 (11732068_a_at) / Fold change /veh CAPN14 (11732068_a_at) / RFU TMCC2 (11721928_a_at) / Fold change /veh TMCC2 (11721928_a_at) / RFU IRGQ (11745062_a_at) / Fold change /veh IRGQ (11745062_a_at) / RFU FAM174B (11720279_a_at) / Fold change /veh FAM174B (11720279_a_at) / RFU TMPRSS4 (11748680_a_at) / Fold change /veh TMPRSS4 (11748680_a_at) / RFU FAM212B (11763350_a_at) / Fold change /veh FAM212B (11763350_a_at) / RFU PLEKHG5 (11743358_a_at) / Fold change /veh PLEKHG5 (11743358_a_at) / RFU ZSCAN30 (11745921_a_at) / Fold change /veh ZSCAN30 (11745921_a_at) / RFU CMKLR1 (11741424_a_at) / Fold change /veh CMKLR1 (11741424_a_at) / RFU LOC101060620 /// MAPK8IP1 (11723275_at) / Fold change /veh LOC101060620 /// MAPK8IP1 (11723275_at) / RFU SPTSSB (11747773_x_at) / Fold change /veh SPTSSB (11747773_x_at) / RFU PRSS12 (11739890_at) / Fold change /veh PRSS12 (11739890_at) / RFU BIN1 (11741810_x_at) / Fold change /veh BIN1 (11741810_x_at) / RFU WNT11 (11732464_a_at) / Fold change /veh WNT11 (11732464_a_at) / RFU C10orf10 (11716521_a_at) / Fold change /veh C10orf10 (11716521_a_at) / RFU C5orf56 (11738089_at) / Fold change /veh C5orf56 (11738089_at) / RFU CYB561 (11721691_x_at) / Fold change /veh CYB561 (11721691_x_at) / RFU ANKRD19P (11752326_a_at) / Fold change /veh ANKRD19P (11752326_a_at) / RFU OR2T12 /// OR2T33 /// OR2T8 (11738714_s_at) / Fold change /veh OR2T12 /// OR2T33 /// OR2T8 (11738714_s_at) / RFU VCAN (11748164_a_at) / Fold change /veh VCAN (11748164_a_at) / RFU JSRP1 (11732532_at) / Fold change /veh JSRP1 (11732532_at) / RFU KRTAP10-11 (11738290_x_at) / Fold change /veh KRTAP10-11 (11738290_x_at) / RFU MYO3A (11730013_a_at) / Fold change /veh MYO3A (11730013_a_at) / RFU EBF3 (11725865_a_at) / Fold change /veh EBF3 (11725865_a_at) / RFU CAMK2N1 (11719241_x_at) / Fold change /veh CAMK2N1 (11719241_x_at) / RFU C5orf56 (11738088_a_at) / Fold change /veh C5orf56 (11738088_a_at) / RFU OLFML3 (11715873_a_at) / Fold change /veh OLFML3 (11715873_a_at) / RFU LOC100653217 /// NTM (11731650_a_at) / Fold change /veh LOC100653217 /// NTM (11731650_a_at) / RFU MAPK11 (11762145_a_at) / Fold change /veh MAPK11 (11762145_a_at) / RFU FIZ1 (11724087_x_at) / Fold change /veh FIZ1 (11724087_x_at) / RFU OASL (11726364_x_at) / Fold change /veh OASL (11726364_x_at) / RFU SOX15 (11748057_x_at) / Fold change /veh SOX15 (11748057_x_at) / RFU CD79A (11719716_a_at) / Fold change /veh CD79A (11719716_a_at) / RFU HIST1H1D (11736915_at) / Fold change /veh HIST1H1D (11736915_at) / RFU CASKIN2 (11723855_a_at) / Fold change /veh CASKIN2 (11723855_a_at) / RFU LOC730098 (11760151_x_at) / Fold change /veh LOC730098 (11760151_x_at) / RFU OR4N2 (11742367_at) / Fold change /veh OR4N2 (11742367_at) / RFU PRRT2 (11749266_a_at) / Fold change /veh PRRT2 (11749266_a_at) / RFU SNX32 (11753110_a_at) / Fold change /veh SNX32 (11753110_a_at) / RFU CDHR5 (11726645_a_at) / Fold change /veh CDHR5 (11726645_a_at) / RFU RCAN1 (11760418_a_at) / Fold change /veh RCAN1 (11760418_a_at) / RFU FAM167A (11723789_a_at) / Fold change /veh FAM167A (11723789_a_at) / RFU FAM26E (11764081_at) / Fold change /veh FAM26E (11764081_at) / RFU ISYNA1 (11749810_s_at) / Fold change /veh ISYNA1 (11749810_s_at) / RFU ACY1 (11761880_at) / Fold change /veh ACY1 (11761880_at) / RFU 11764098_at / Fold change /veh 11764098_at / RFU SAMD14 (11745864_x_at) / Fold change /veh SAMD14 (11745864_x_at) / RFU NPB (11741838_a_at) / Fold change /veh NPB (11741838_a_at) / RFU TMPRSS6 (11731388_a_at) / Fold change /veh TMPRSS6 (11731388_a_at) / RFU KRTAP10-2 (11738614_at) / Fold change /veh KRTAP10-2 (11738614_at) / RFU ARHGAP8 /// PRR5-ARHGAP8 (11727945_x_at) / Fold change /veh ARHGAP8 /// PRR5-ARHGAP8 (11727945_x_at) / RFU KRTAP5-7 /// NADSYN1 (11734609_at) / Fold change /veh KRTAP5-7 /// NADSYN1 (11734609_at) / RFU RASL12 (11751679_a_at) / Fold change /veh RASL12 (11751679_a_at) / RFU CDKN2B (11736163_a_at) / Fold change /veh CDKN2B (11736163_a_at) / RFU PRF1 (11729649_at) / Fold change /veh PRF1 (11729649_at) / RFU, ZNF638 /// ZNF638-IT1 / Fold change vs veh, ZNF638 /// ZNF638-IT1 / RFU, PANK3 / Fold change vs veh, PANK3 / RFU, SH3YL1 / Fold change vs veh, SH3YL1 / RFU, ZEB2 / Fold change vs veh, ZEB2 / RFU, NRIP1 / Fold change vs veh, NRIP1 / RFU, PTTG1IP / Fold change vs veh, PTTG1IP / RFU, CAPN2 / Fold change vs veh, CAPN2 / RFU, MED14 / Fold change vs veh, MED14 / RFU, SNORA58 / Fold change vs veh, SNORA58 / RFU, C1orf63 / Fold change vs veh, C1orf63 / RFU, LRRFIP1 / Fold change vs veh, LRRFIP1 / RFU, NDUFAF7 / Fold change vs veh, NDUFAF7 / RFU, SLC12A2 / Fold change vs veh, SLC12A2 / RFU, IBTK / Fold change vs veh, IBTK / RFU, ESF1 / Fold change vs veh, ESF1 / Fold change vs veh, TMEM50B / RFU, TAOK1 / Fold change vs veh, TAOK1 / RFU, ACBD3 / Fold change vs veh, ACBD3 / RFU, TMA16 / Fold change vs veh, TMA16 / RFU, RWDD3 / Fold change vs veh, RWDD3 / RFU, BCAT1 / Fold change vs veh, BCAT1 / RFU, EDEM3 / Fold change vs veh, EDEM3 / RFU, TMEM33 / Fold change vs veh, TMEM33 / RFU, WDR75 / Fold change vs veh, WDR75 / RFU, AHCTF1 / Fold change vs veh, AHCTF1 / RFU, TFRC / Fold change vs veh, TFRC / RFU, ZDHHC17 / Fold change vs veh, ZDHHC17 / RFU, NOM1 / Fold change vs veh, NOM1 / RFU, ARL8B / Fold change vs veh, ARL8B / RFU, ZBTB11 / Fold change vs veh, ZBTB11 / RFU, TAMM41 / Fold change vs veh, TAMM41 / RFU, KIAA1704 /// LOC100996395 / Fold change vs veh, KIAA1704 /// LOC100996395 / RFU, ING1 / Fold change vs veh, ING1 / RFU, TRMT61B / Fold change vs veh, TRMT61B / RFU, FUBP3 / Fold change vs veh, FUBP3 / RFU, TP53 / Fold change vs veh, TP53 / RFU, TNKS2 / Fold change vs veh, TNKS2 / RFU, ZFP14 / Fold change vs veh, ZFP14 / RFU, ACTR2 / Fold change vs veh, ACTR2 / RFU, PPP3R1 / Fold change vs veh, PPP3R1 / RFU, PIK3R1 / Fold change vs veh, PIK3R1 / RFU, HNRNPA1 / Fold change vs veh, HNRNPA1 / RFU, RNF170 / Fold change vs veh, RNF170 / RFU, ZNF28 / Fold change vs veh, ZNF28 / RFU, RNGTT / Fold change vs veh, RNGTT / RFU, OGT / Fold change vs veh, OGT / RFU, BRD1 / Fold change vs veh, BRD1 / RFU, MARS / Fold change vs veh, MARS / RFU, ZNF655 / Fold change vs veh, ZNF655 / RFU, FAHD1 / Fold change vs veh, FAHD1 / RFU, BDP1 / Fold change vs veh, BDP1 / RFU, LRRCC1 / Fold change vs veh, LRRCC1 / RFU, ARID1A / Fold change vs veh, ARID1A / RFU, ZNF146 / Fold change vs veh, ZNF146 / RFU, ZNF330 / Fold change vs veh, ZNF330 / RFU, GPN3 / Fold change vs veh, GPN3 / RFU, C9orf123 / Fold change vs veh, C9orf123 / RFU, N4BP2L2 / Fold change vs veh, N4BP2L2 / RFU, ARFIP1 / Fold change vs veh, ARFIP1 / RFU, FAM179B / Fold change vs veh, FAM179B / RFU, BCL10 / Fold change vs veh, BCL10 / RFU, UHRF1BP1L / Fold change vs veh, UHRF1BP1L / RFU, BET1 / Fold change vs veh, BET1 / RFU, CNOT2 / Fold change vs veh, CNOT2 / RFU, ZNF268 / Fold change vs veh, ZNF268 / Fold change vs veh, ZNF507 / RFU, DGCR2 / Fold change vs veh, DGCR2 / RFU, WDSUB1 / Fold change vs veh, WDSUB1 / Fold change vs veh, HSP90B1 /// MIR3652 / RFU, ADSS / Fold change vs veh, ADSS / RFU, GK / Fold change vs veh, GK / RFU, ZNF148 / Fold change vs veh, ZNF148 / RFU, TAF9 / Fold change vs veh, TAF9 / RFU, SLC1A5 / Fold change vs veh, SLC1A5 / RFU, SLMO2 / Fold change vs veh, SLMO2 / RFU, ABCC4 / Fold change vs veh, ABCC4 / RFU, LOC101060439 /// RAP1B / Fold change vs veh, LOC101060439 /// RAP1B / RFU, RFX7 / Fold change vs veh, RFX7 / RFU, GTPBP10 / Fold change vs veh, GTPBP10 / RFU, CNEP1R1 / Fold change vs veh, CNEP1R1 / RFU, BIVM-ERCC5 /// ERCC5 / Fold change vs veh, BIVM-ERCC5 /// ERCC5 / RFU, ILF3 / Fold change vs veh, ILF3 / RFU 11762660_at / Fold change /veh 11762660_at / RFU VCAN (11757783_s_at) / Fold change /veh VCAN (11757783_s_at) / RFU DDX43 (11728927_at) / Fold change /veh DDX43 (11728927_at) / RFU KRT8 (11758188_x_at) / Fold change /veh KRT8 (11758188_x_at) / RFU NKD1 (11759106_at) / Fold change /veh NKD1 (11759106_at) / RFU SRD5A1 (11742802_a_at) / Fold change /veh SRD5A1 (11742802_a_at) / RFU TPSAB1 /// TPSB2 (11721975_s_at) / Fold change /veh TPSAB1 /// TPSB2 (11721975_s_at) / RFU GSTM3 (11746129_a_at) / Fold change /veh GSTM3 (11746129_a_at) / RFU IL23R (11737362_x_at) / Fold change /veh IL23R (11737362_x_at) / RFU TMEM51 (11727254_a_at) / Fold change /veh TMEM51 (11727254_a_at) / RFU PIWIL2 (11732686_x_at) / Fold change /veh PIWIL2 (11732686_x_at) / RFU ORM1 (11744905_x_at) / Fold change /veh ORM1 (11744905_x_at) / RFU CCDC152 (11743942_at) / Fold change /veh CCDC152 (11743942_at) / RFU ECM1 (11717891_a_at) / Fold change /veh ECM1 (11717891_a_at) / RFU IL23R (11748794_a_at) / Fold change /veh IL23R (11748794_a_at) / RFU TNFAIP8L3 (11732012_x_at) / Fold change /veh TNFAIP8L3 (11732012_x_at) / RFU MBOAT4 (11741988_at) / Fold change /veh MBOAT4 (11741988_at) / RFU 11764193_at / Fold change /veh 11764193_at / RFU TMEM53 (11763286_at) / Fold change /veh TMEM53 (11763286_at) / RFU MAGEB2 (11727129_at) / Fold change /veh MAGEB2 (11727129_at) / RFU TMEM200A (11744735_a_at) / Fold change /veh TMEM200A (11744735_a_at) / RFU CCDC152 (11751479_a_at) / Fold change /veh CCDC152 (11751479_a_at) / RFU FAM211A (11726209_a_at) / Fold change /veh FAM211A (11726209_a_at) / RFU RGS16 (11746705_a_at) / Fold change /veh RGS16 (11746705_a_at) / RFU VCAN (11755009_s_at) / Fold change /veh VCAN (11755009_s_at) / RFU RHOB (11743442_s_at) / Fold change /veh RHOB (11743442_s_at) / RFU RGS16 (11720943_a_at) / Fold change /veh RGS16 (11720943_a_at) / RFU RGS16 (11720944_at) / Fold change /veh RGS16 (11720944_at) / RFU, VPS4B / Fold change vs veh, VPS4B / RFU, CREB1 / Fold change vs veh, CREB1 / RFU, DNAJC13 / Fold change vs veh, DNAJC13 / RFU, GNAQ / Fold change vs veh, GNAQ / RFU, CDK5R1 / Fold change vs veh, CDK5R1 / RFU, ZRANB3 / Fold change vs veh, ZRANB3 / RFU, CUL4A / Fold change vs veh, CUL4A / RFU, CCNY / Fold change vs veh, CCNY / RFU, UFL1 / Fold change vs veh, UFL1 / RFU, COG3 / Fold change vs veh, COG3 / RFU, DIAPH2 / Fold change vs veh, DIAPH2 / RFU, SKA2 / Fold change vs veh, SKA2 / RFU, AFF3 / Fold change vs veh, AFF3 / RFU, LMF1 / Fold change vs veh, LMF1 / RFU, IPO11 / Fold change vs veh, IPO11 / RFU, DFFB / Fold change vs veh, DFFB / RFU, FOXP1 / Fold change vs veh, FOXP1 / RFU, CARD8 / Fold change vs veh, CARD8 / RFU, STRN3 / Fold change vs veh, STRN3 / RFU, ADK / Fold change vs veh, ADK / RFU, RASSF2 / Fold change vs veh, RASSF2 / RFU, WIPF1 / Fold change vs veh, WIPF1 / RFU, LARP1B / Fold change vs veh, LARP1B / RFU, RASA1 / Fold change vs veh, RASA1 / RFU, RB1 / Fold change vs veh, RB1 / RFU, PPFIA1 / Fold change vs veh, PPFIA1 / RFU, MAT2A / Fold change vs veh, MAT2A / RFU, CCT5 / Fold change vs veh, CCT5 / RFU, WDR92 / Fold change vs veh, WDR92 / RFU, CUX1 / Fold change vs veh, CUX1 / RFU, TTC7A / Fold change vs veh, TTC7A / RFU, TMEM135 / Fold change vs veh, TMEM135 / RFU, DEPTOR / Fold change vs veh, DEPTOR / RFU, CPM / Fold change vs veh, CPM / RFU, DNAJB6 / Fold change vs veh, DNAJB6 / RFU, CACNA2D3 / Fold change vs veh, CACNA2D3 / RFU, DTX4 / Fold change vs veh, DTX4 / RFU, TFCP2 / Fold change vs veh, TFCP2 / RFU, GMCL1 /// GMCL1P1 / Fold change vs veh, GMCL1 /// GMCL1P1 / RFU, AEBP2 / Fold change vs veh, AEBP2 / RFU, SNHG1 /// SNORD22 /// SNORD25 /// SNORD26 /// SNORD27 /// SNORD28 /// SNORD29 /// SNORD31 / Fold change vs veh, SNHG1 /// SNORD22 /// SNORD25 /// SNORD26 /// SNORD27 /// SNORD28 /// SNORD29 /// SNORD31 / Fold change (Aza/veh), C12orf56 (ProbeSet 11735607_a_at) / Fold change (ACY-1035/veh), C12orf56 (ProbeSet 11735607_a_at) / Fold change (Aza/veh), FGFR1OP (ProbeSet 11751329_s_at) / Fold change (ACY-1035/veh), FGFR1OP (ProbeSet 11751329_s_at) / Fold change (Aza/veh), VPS36 (ProbeSet 11739960_a_at) / Fold change (ACY-1035/veh), VPS36 (ProbeSet 11739960_a_at) / RFU SYPL1 (11715823_x_at) / Fold change /veh SYPL1 (11715823_x_at) / RFU IGFBP7 (11715501_s_at) / Fold change /veh IGFBP7 (11715501_s_at) / RFU REEP3 (11722064_at) / Fold change /veh REEP3 (11722064_at) / RFU IGLL1 (11728026_x_at) / Fold change /veh IGLL1 (11728026_x_at): dose or concentration left out as unconfirmed. To be noted: ProbeSet 11728443_a_at; LIST B. Format: cell-based, human.

Take `Nc1ncn([C@@H]2O[C@H](CO)[C@@H](O)[C@H]2O)c(=O)n1` [azacitidine]: the “RFU, TAOK1” value was 59.03 RFU.
